# According to article PMC2362044, “A potent nonporphyrin class of photodynamic therapeutic agent: cellular localisation, cytotoxic potential and influence of hypoxia” (British Journal of Cancer, 2005):
# Read-outs that look alike come from different tables or passages of the source.
# What was measured:
# A2780 cells = assay: Colorimetric survival (MTT) assay after photo-irradiation, normoxia; type: cell-based; settings: Homo sapiens, A2780, 3 h incubation
# Protocol: (§1) All cell lines unless otherwise stated were obtained from the American Type Culture Collection. HeLa, MRC5, HT-1080, MDA-MB-231, MCF-7 and T47-D cells were cultured in minimum essential medium (MEM) supplemented with 10% (v v^−1) foetal calf serum (FCS), 1% (v v^−1) non-essential amino acids, 50 U ml^−1 penicillin, 50 μg ml^−1 streptomycin, 20 mM HEPES and 1% (v v^−1) L-glutamine (Gibco-BRL). SW480, SW620 (obtained from Professor D Croke, Royal College of Surgeons, Dublin), A2780 and A2780cp70 cells (Obtained from Professor R Brown, Cancer Research UK, Beatson Laboratories, Glasgow) were cultured in RPMI-1640 medium plus the above-mentioned supplements. All cells were maintained in 5% CO2 (v v^−1) and 21% O2 (v v^−1) at 37°C unless otherwise stated.
# (§2) Cells were seeded in 96-well flat-bottomed microtitre plates (5000 cells well^−1) and incubated at 37°C in a 5% CO2 incubator for 24 h. Cells were then incubated with varying concentrations of photosensitiser (1 × 10^−9 to 1 × 10^−4 M) in the dark for 3 h at 37°C. The ADPM compound-laden medium was then removed, the cells were washed with PBS and fresh culture medium was added to each well. This was followed by light irradiation with a broad-spectrum red light source (600–750 nm) via a Waldmann PDT1200L light delivery system. For this study, fluences (light exposures) of either 8 or 16 J cm^−2, at a dose rate of 80 mW cm^−2, were used. Following irradiation, the cells were incubated for a further 48 h before being assessed for cell viability by a standard MTT assay (Sigma). The subsequent colour change produced by viable cells was quantified using a plate reader (VICTOR^2 1420 multilabel HTS counter, Wallac). […] The dark toxicity of each compound was also assessed.
# (§3) Prism ([…]) was used to graph the data obtained from the MTT assays and the uptake/clearance experiments. This program allows nonlinear regression analysis and the generation of sigmoidal dose–response curves. Prism also automatically calculates EC50 values. Statistical analysis was performed using the ANOVA test (Prism). Significant differences were detected using the Bonferroni multiple comparison test. P-values <0.05 were considered statistically significant.
# A2780cp70 cells = assay: as above; type: cell-based; settings: Homo sapiens, A2780/CP70, A2780cp70, 3 h incubation
# Protocol: as §1, §2, §3
# HT-1080 cells = assay: as above; type: cell-based; settings: Homo sapiens, HT-1080, 3 h incubation
# Protocol: as §1, §2, §3
# HeLa cells [1] = assay: as above; type: cell-based; settings: Homo sapiens, normoxia 21% oxygen, 3 h incubation
# Protocol: as §1, §2, §3
# MCF-7 cells = assay: as above; type: cell-based; settings: Homo sapiens, MCF7, MCF-7, 3 h incubation
# Protocol: as §1, §2, §3
# MDA-MB-231 cells = assay: as above; type: cell-based; settings: Homo sapiens, MDA-MB-231, 3 h incubation
# Protocol: as §1, §2, §3
# MRC-5 cells = assay: as above; type: cell-based; settings: Homo sapiens, MRC5, MRC-5, normoxia 21% oxygen, 3 h incubation
# Protocol: as §1, §2, §3
# SW480 cells = assay: as above; type: cell-based; settings: Homo sapiens, SW480, 3 h incubation
# Protocol: as §1, §2, §3
# SW620 cells = assay: as above; type: cell-based; settings: Homo sapiens, SW-620, SW620, 3 h incubation
# Protocol: as §1, §2, §3
# T47-D cells = assay: as above; type: cell-based; settings: Homo sapiens, T47D, 3 h incubation
# Protocol: as §1, §2, §3
# HeLa cells [2] = assay: Flow cytometric assessment of apoptosis (Annexin-V/PI); type: cell-based, human
# Protocol: (§4) Evaluation of apoptotic and necrotic cell populations was achieved using the ApoTarget Annexin-V FITC Apoptosis kit (BioSource International, Inc.). Cells (2.0 × 10^5) were seeded into 25 cm^2 flasks and treated with either ADPM01 or ADPM06 at respective EC50 or 10-fold EC50 concentration levels for 3 h, followed by irradiation with red light at 16 J cm^−2, as described above. Subsequently, cells were incubated for 4 and 16 h, with floating and adherent cells being collected at each time point by centrifugation and then stained with Annexin-V and propidium iodide (PI) as per the manufacturer's instructions. The percentage of cells at different phases of cell death, namely nonapoptotic (Annexin-V^−/PI^−), early apoptotic (Annexin-V^+/PI^−), and necrotic or late-stage apoptotic (Annexin-V^+/PI^+), was quantified using a EPICS XL-MCL flow cytometer (Coulter) and analysed using System II software, with at least 5000 cells being analysed for each run.
# MRC5 cells = assay: as above; type: cell-based, human
# Protocol: as §4
# [3] = design: method as in Gorman et al, 2004; settings: ref Gorman et al, 2004, cited from earlier work
# [4] = 0 J cm^−2, read-out: EC50 (M) (dark)
# [5] = 8 J cm^−2, read-out: EC50 (M) (8 J cm^−2)
# [6] = 16 J cm^−2, read-out: EC50 (M) (16 J cm^−2)
# [7] = 10-fold EC50 concentration, 16 h post-irradiation
# [8] = EC50 concentration, 4 h post-irradiation
# [9] = MRC5, 10-fold EC50 concentration, 16 h post-irradiation
# [10] = MRC5, EC50 concentration, 4 h post-irradiation
compound,measurement,setting,value
F[B-]1(F)n2c(-c3ccccc3)cc(-c3ccccc3)c2N=C2C(c3ccccc3)=CC(c3ccccc3)=[N+]21 [ADPM01],EC50,A2780 cells; [4],> 0.0001 M
same,EC50,A2780 cells; [5],5.1e-06 M
same,EC50,A2780 cells; [6],4.5e-06 M
same,EC50,A2780cp70 cells; [4],> 0.0001 M
same,EC50,A2780cp70 cells; [5],6.8e-06 M
same,EC50,A2780cp70 cells; [6],2.8e-06 M
same,EC50,HT-1080 cells; [4],> 0.0001 M
same,EC50,HT-1080 cells; [5],3.4e-05 M
same,EC50,HT-1080 cells; [6],2.2e-05 M
same,EC50,HeLa cells [1]; [4],2.7e-05 M
same,EC50,HeLa cells [1]; [5],2.8e-06 M
same,EC50,HeLa cells [1]; [6],9.2e-07 M
same,EC50,MCF-7 cells; [4],> 0.0001 M
same,EC50,MCF-7 cells; [5],3.4e-06 M
same,EC50,MCF-7 cells; [6],1.9e-06 M
same,EC50,MDA-MB-231 cells; [4],1.2e-05 M
same,EC50,MDA-MB-231 cells; [5],5.6e-06 M
same,EC50,MDA-MB-231 cells; [6],2.6e-07 M
same,EC50,MRC-5 cells; [4],> 0.0001 M
same,EC50,MRC-5 cells; [5],3.1e-06 M
same,EC50,MRC-5 cells; [6],5e-07 M
same,EC50,SW480 cells; [4],> 0.0001 M
same,EC50,SW480 cells; [5],7.6e-06 M
same,EC50,SW480 cells; [6],8e-07 M
same,EC50,SW620 cells; [4],> 0.0001 M
same,EC50,SW620 cells; [5],5.6e-06 M
same,EC50,SW620 cells; [6],2.8e-06 M
same,EC50,T47-D cells; [4],> 0.0001 M
same,EC50,T47-D cells; [5],5.6e-06 M
same,EC50,T47-D cells; [6],5.3e-06 M
same,"cells in lower left quadrant (Annexin-V−/PI−, nonapoptotic)",HeLa cells [2]; [7],42.5%
same,"cells in lower right quadrant (Annexin-V+/PI−, early apoptotic)",HeLa cells [2]; [7],16.5%
same,"cells in upper left quadrant (PI+, Annexin-V−)",HeLa cells [2]; [7],1.0%
same,"cells in upper right quadrant (Annexin-V+/PI+, necrotic or late-stage apoptotic)",HeLa cells [2]; [7],40.0%
same,"cells in lower left quadrant (Annexin-V−/PI−, nonapoptotic)",HeLa cells [2]; [8],95.3%
same,"cells in lower right quadrant (Annexin-V+/PI−, early apoptotic)",HeLa cells [2]; [8],4.40%
same,"cells in upper left quadrant (PI+, Annexin-V−)",HeLa cells [2]; [8],0.16%
same,"cells in upper right quadrant (Annexin-V+/PI+, necrotic or late-stage apoptotic)",HeLa cells [2]; [8],0.12%
same,"cells in lower left quadrant (Annexin-V−/PI−, nonapoptotic)",MRC5 cells; [9],26.9%
same,"cells in lower right quadrant (Annexin-V+/PI−, early apoptotic)",MRC5 cells; [9],31.8%
same,"cells in upper left quadrant (PI+, Annexin-V−)",MRC5 cells; [9],0.5%
same,"cells in upper right quadrant (Annexin-V+/PI+, necrotic or late-stage apoptotic)",MRC5 cells; [9],40.8%
same,"cells in lower left quadrant (Annexin-V−/PI−, nonapoptotic)",MRC5 cells; [10],94.1%
same,"cells in lower right quadrant (Annexin-V+/PI−, early apoptotic)",MRC5 cells; [10],3.82%
same,"cells in upper left quadrant (PI+, Annexin-V−)",MRC5 cells; [10],0.84%
same,"cells in upper right quadrant (Annexin-V+/PI+, necrotic or late-stage apoptotic)",MRC5 cells; [10],1.28%
same,strong absorbance band,[3]; formulated in CrEL/PBS,658 nm
same,fluorescence quantum yield (Φf),[3],0.34
